Data from US11261179B2, “Small molecules” (University of Dundee, priority 2017, dated 2022).

Assays:
[1] = target: pVHL19 (VCB complex: VHL with Elongin B and Elongin C) (Homo sapiens, UniProt P40337); assay: ITC titration against VCB, short VHL isoform; format: binding; conditions: for binding to VCB detected by ITC: ITC against VCB; for Kd / ΔG / ΔH / −TΔS / n (stoichiometry) / α (cooperativity/avidity): ITC; for Kd / ΔG / ΔH / −TΔS / α (cooperativity/avidity): pVHL19; for n (stoichiometry): pVHL19, 25° C.
Chain of pVHL19 (VCB complex: VHL with Elongin B and Elongin C) (P40337 54-213): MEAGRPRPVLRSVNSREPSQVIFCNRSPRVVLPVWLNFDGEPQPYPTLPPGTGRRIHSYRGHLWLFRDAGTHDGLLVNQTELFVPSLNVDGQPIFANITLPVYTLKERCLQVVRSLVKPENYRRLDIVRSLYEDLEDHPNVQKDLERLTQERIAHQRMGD
Chain of pVHL19 (VCB complex: VHL with Elongin B and Elongin C) (Q15370 1-104 partner limits assumed): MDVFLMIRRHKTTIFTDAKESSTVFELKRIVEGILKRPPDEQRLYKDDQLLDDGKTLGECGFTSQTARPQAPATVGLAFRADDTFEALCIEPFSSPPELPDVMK
Chain of pVHL19 (VCB complex: VHL with Elongin B and Elongin C) (Q15369 17-112 partner limits assumed): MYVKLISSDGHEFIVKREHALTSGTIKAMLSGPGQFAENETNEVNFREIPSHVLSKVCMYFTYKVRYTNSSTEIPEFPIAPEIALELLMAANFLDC
Experimental: (§1) Titrations were performed on an ITC200 micro-calorimeter (GE Healthcare). […] The final DMSO concentration was 0.15% v/v. VBC protein experiments were carried out in a buffer containing 20 mM Bis-tris propane, 150 mM NaCl, 1 mM TCEP, 0.15% v/v DMSO, pH 7.4. The titrations consisted of 19 injections of 2 μL compounds solution (150 μM, in the syringe) at a rate of 2 s/μL at 120 s time intervals into the VCB protein solution (20 μM, in the cell). An initial injection of compound solution (0.4 μL) was made and discarded during data analysis. All experiments were performed at 25° C., whilst stirring the syringe at 600 rpm. The data were fitted to a single binding site model to obtain the stoichiometry n, the dissociation constant Kd and the enthalpy of binding ΔH using the Microcal LLC ITC200 Origin software provided by the manufacturer.

[2] = target: T1, pVHL30 (long isoform of VHL) (Homo sapiens, UniProt P40337); assay: Western blot of VHL levels in HeLa cells; format: cell-based; conditions: 1 μM, 10 h
T1 construct: endogenous in cells; host or cells: HeLa
T1 sequence (P40337 whole entry, canonical isoform): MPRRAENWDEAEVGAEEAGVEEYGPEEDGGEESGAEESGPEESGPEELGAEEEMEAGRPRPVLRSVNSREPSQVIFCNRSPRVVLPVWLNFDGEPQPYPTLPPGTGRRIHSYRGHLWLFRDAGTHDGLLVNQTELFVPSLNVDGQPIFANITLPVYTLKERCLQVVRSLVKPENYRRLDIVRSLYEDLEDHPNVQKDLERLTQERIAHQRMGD
Experimental: (§2) For single time point treatment experiments, cells were transferred in 6-well plates with 5×10^5 cells per well in 2 ml media in order to achieve 80% confluence the following day. Stock concentrations of compounds were prepared by solubilizing the powder in 100% v/v DMSO to the final desired stock concentration.
(§3) On the day of treatment, all compound samples were prepared as 100-fold concentrated compound solution using DMEM just before treatment. The experiment samples (20 μL) were added to the 6 well plate containing 2 ml of media. The final DMSO concentration was 0.1% v/v. Cells were incubated at 37° C. and 5% CO2 for the desired time before harvesting.
(§4) For time dependent treatment, cells were transferred in 6-well plates with 3×10^5 cells per well in 2 ml media. Samples were prepared as detailed above or the single time point experiments. Treatment was conducted at given time points prior to harvest.
Cells were transferred in 6-well plates with 5×10^5 cells per well in 2 ml media in order to achieve 80% confluence the day after. At t=0, MLN4924 was added into the desired wells at 3 μM final concentration and 0.1% v/v of DMSO. DMSO (0.1% v/v final conc.) was added to the remaining wells in order to match identical conc. of vehicle in all wells. At t=3 h, MG 132 was added into the desired wells at 50 μM final conc. and 0.1% v/v of DMSO. DMSO (0.1% v/v final conc.) was added to the remaining wells in order to achieve the same conc. of vehicle in all the wells. […] DMSO (0.1% v/v final conc.) was added to the remaining wells in order to obtain the same conc. of vehicle in all the wells. The total final concentration of DMSO was therefore 0.3% v/v. Plates were incubated for 4 h at 37° C. and 5% CO2 before harvesting.
Cells were transferred in 6-well plates with 5×10^5 cells per well in 2 ml media in order to achieve 80% confluence the day after. […] Plates were incubated for the desired time at 37° C. and 5% CO2 before harvesting.
For this experiments, cells were transferred in 6-well plates with 5×10^5 cells per well in 2 ml media in order to achieve 80% confluence the day after. […] Plates were incubated for the desired time at 37° C. and 5% CO2 before harvesting.
(§5) Cells were lysed in lysis buffer (20 mM Tris pH 8, 150 mM NaCl, 1% Triton x100) and a protease inhibitor cocktail (Roche) per 10 ml buffer. For protein extracts, the dishes were placed on ice. The media was aspirated and the tissue layer washed twice with ice-cold phosphate buffer saline (PBS). Lysis buffer (120 μl) was added and the cells detached from the surface with a cell scraper. After removal of the insoluble fraction by centrifugation, the protein concentration of the supernatant was determined by Pierce™ Coomassie (Bradford) Protein Assay Kit. Protein extracts were fractionated by SDS-PAGE on 4-12% Tris-Acetate NuPage® Novex® (Life Technologies) polyacrylamide gels and transferred to a nitrocellulose membrane using wet transfer. The membrane was then blocked with 5% w/v Bovine serum albumin (BSA) in Tris-buffered saline (TBS) with 0.1% w/v Tween-20. For detecting proteins the following primary antibodies in the given concentrations were used: anti-β-Actin (Cell Signaling Technology, 4970S, 13E5) 1:2000, anti-VHL (Cell Signaling Technology, #68547) 1:1000, anti-Hif-1α (BD Biosciences, 610959, clone 54) 1:1000, anti-hydroxy-HIF-1α (Hyp564) (Cell Signaling Techonology; #3434) 1:1000, anti-PHD2 (Bethyl Laboratories; A300-322A) 1:1000, anti-PHD3 (Bethyl Laboratories; A300-327A) 1:1000, anti-CRBN (Proteintech; 11435-1-AP) 1:1000.
(§6) Following incubation with a horseradish peroxidase-conjugated secondary antibody (Cell Signaling Technology), the signal was developed using enhanced chemiluminescence (ECL) Western Blotting Detection Kit (Amersham) on Amersham Hyperfilm ECL film (Amersham).
Band quantification was performed using ImageJ software and reported as relative amount as ratio of the each protein band relative to the lane's loading control. […]

VCB complex = VCB complex (Homo sapiens, UniProt P40337); assay: Size exclusion chromatography of VCB complex formation; format: binding; conditions: SEC; for shift of VCB peak / ternary complex formation: VCB 50 μM, compound 30 μM
Chain of VCB complex (P40337 54-213 limits assumed): as the sequence (P40337 54-213) above
Chain of VCB complex (Q15370 1-104 partner limits assumed): as the sequence (Q15370 1-104 partner limits assumed) above
Chain of VCB complex (Q15369 17-112 partner limits assumed): as the sequence (Q15369 17-112 partner limits assumed) above
Experimental: SEC experiments were carried out in a AKTA pure system (GE Healthcare) at room temperature. The oligomeric state of the VCB complex in solution was analyzed by gel filtration in a buffer containing 20 mM Bis-Tris (pH 7), 150 mM NaCl and 1 mM 1,4-dithiothreitol (DTT) using a Superdex 200 Increase 10/300 GL column (GE Healthcare) calibrated with globular proteins of known molecular weight (GE Healthcare, 28-4038-41/42). […] Sample volume for each injection was 200 μL, and the flow rate was 0.5 mL/min. Peak elution was monitored using ultraviolet absorbance at 280 nm.

pVHL30 (VCB complex) = pVHL30 (VCB complex) (Homo sapiens, UniProt P40337); assay: ITC titration against VCB, long VHL isoform; format: binding
Chain of pVHL30 (VCB complex) (P40337 whole entry, canonical isoform): as the sequence (P40337 whole entry, canonical isoform) above
Chain of pVHL30 (VCB complex) (Q15370 1-104 partner limits assumed): as the sequence (Q15370 1-104 partner limits assumed) above
Chain of pVHL30 (VCB complex) (Q15369 17-112 partner limits assumed): as the sequence (Q15369 17-112 partner limits assumed) above
Experimental: as §1

[3] = test system: HIF-1α / hydroxylated HIF-1α (Hdy-HIF-1α); assay: Western blot of HIF-1α and Hdy-HIF-1α levels in HeLa cells; format: cell-based, Human
Experimental: as §2, §3, §4, §5, §6
Band quantification was performed using ImageJ software and reported as relative amount as ratio of the each protein band relative to the lane's loading control. The values obtained were then normalized to 0.1% DMSO vehicle control.

SMILES	Kd [1]	ΔG [1]	ΔH [1]	−TΔS [1]	n (stoichiometry) [1]	α (cooperativity/avidity) [1]	also measured
Cc1ncsc1-c1ccc(CNC(=O)[C@@H]2C[C@H](O)CN2C(=O)[C@@H](NC(=O)COCCOCCOCCOCCOCCOCC(=O)N[C@H](C(=O)N2C[C@@H](O)C[C@H]2C(=O)NCc2ccc(-c3scnc3C)cc2)C(C)(C)C)C(C)(C)C)cc1 [CMP98, N^1,N^20-bis((S)-1-((2S,4S)-4-hydroxy-2-((4-(4-methylthiazol-5-yl)benzyl)carbamoyl)pyrrolidin-1-yl)-3,3-dimethyl-1-oxobutan-2-yl)-3,6,9,12,15,18-hexaoxaicosanediamide]	–	–	–	–	–	–	binding to VCB detected by ITC [1]: binding was not detected; depletion/degradation of VHL (pVHL30) [2]: unable to induce degradation of VHL; shift of VCB peak / ternary complex formation (VCB complex): no shift
Cc1ncsc1-c1ccc(CNC(=O)[C@H]2C[C@@H](O)CN2C(=O)[C@H](NC(=O)COCCOCCOCCOCCOCC(=O)N[C@H](C(=O)N2C[C@H](O)C[C@H]2C(=O)NCc2ccc(-c3scnc3C)cc2)C(C)(C)C)C(C)(C)C)cc1 [CMP99, N^1—((R)-1-((2R,4R)-4-hydroxy-2-((4-(4-methylthiazol-5-yl)benzyl)carbamoyl)pyrrolidin-1-yl)-3,3-dimethyl-1-oxobutan-2-yl)-N^17—((S)-1-((2S,4R)-4-hydroxy-2-((4-(4-methylthiazol-5-yl)benzyl)carbamoyl)pyrrolidin-1-yl)-3,3-dimethyl-1-oxobutan-2-yl)-3,6,9,12,15-pentaoxaheptadecanediamide]	146 ± 2 nM	-9.33 ± 0.06 kcal/mol	-6.23 ± 0.05 kcal/mol	-3.1 ± 0.7 kcal/mol	0.964 ± 0.005	–	Kd (pVHL30 (VCB complex)): 106 ± 10 nM; n (stoichiometry) (pVHL30 (VCB complex)): 1.050 ± 0.004; ΔG (pVHL30 (VCB complex)): -9.51 ± 0.05 kcal/mol; ΔH (pVHL30 (VCB complex)): -5.19 ± 0.03 kcal/mol; −TΔS (pVHL30 (VCB complex)): -4.3 ± 0.1 kcal/mol; depletion/degradation of VHL (pVHL30) [2]: unable to induce degradation of VHL; elution volume of small peak (VCB complex): 13.5 mL; shift of VCB peak / ternary complex formation (VCB complex): no shift
CC(=O)N[C@H](C(=O)N1C[C@H](O)C[C@H]1C(=O)NCc1ccc(-c2scnc2C)cc1OCCOCCOCCOCCOCCOc1cc(-c2scnc2C)ccc1CNC(=O)[C@@H]1C[C@@H](O)CN1C(=O)[C@@H](NC(C)=O)C(C)(C)C)C(C)(C)C [CMP106, (2S,2′S,4R,4′R)—N,N′-((((3,6,9,12-tetraoxatetradecane-1,14-diyl)bis(oxy))bis(4-(4-methylthiazol-5-yl)-2,1-phenylene))bis(methylene))bis(1-((S)-2-acetamido-3,3-dimethylbutanoyl)-4-hydroxypyrrolidine-2-carboxamide)]	111 ± 8 nM	-9.5 kcal/mol	-12.6 ± 0.1 kcal/mol	3.1 kcal/mol	0.535 ± 0.004	1.7	–
Cc1ncsc1-c1ccc(CNC(=O)[C@@H]2C[C@@H](O)CN2C(=O)[C@@H](NC(=O)C2(C#N)CC2)C(C)(C)C)c(OCCOCCOCCOCCOCCOc2cc(-c3scnc3C)ccc2CNC(=O)[C@@H]2C[C@@H](O)CN2C(=O)[C@@H](NC(=O)C2(C#N)CC2)C(C)(C)C)c1 [CMP108, (2S,2′S,4R,4′R)—N,N′-((((3,6,9,12-tetraoxatetradecane-1,14-diyl)bis(oxy))bis(4-(4-methylthiazol-5-yl)-2,1-phenylene))bis(methylene))bis(1-((S)-2-(1-cyanocyclopropane-1-carboxamido)-3,3-dimethylbutanoyl)-4-hydroxypyrrolidine-2-carboxamide)]	–	–	–	–	–	–	binding to VCB detected by ITC [1]: data could not be fitted to a binding curve
CC(=O)N[C@H](C(=O)N1C[C@H](O)C[C@H]1C(=O)NCc1ccc(-c2scnc2C)cc1OCCOCCOCCOCCOCCOCC(=O)N[C@H](C(=O)N1C[C@H](O)C[C@H]1C(=O)NCc1ccc(-c2scnc2C)cc1)C(C)(C)C)C(C)(C)C [CMP112, (2S,4R)-1-((S)-2-acetamido-3,3-dimethylbutanoyl)-4-hydroxy-N-(2-(((S)-19-((2S,4R)-4-hydroxy-2-((4-(4-methylthiazol-5-yl)benzyl)carbamoyl)pyrrolidine-1-carbonyl)-20,20-dimethyl-17-oxo-3,6,9,12,15-pentaoxa-18-azahenicosyl)oxy)-4-(4-methylthiazol-5-yl)benzyl)pyrrolidine-2-carboxamide]	235 ± 22 nM	-9.1 kcal/mol	-14.8 ± 0.2 kcal/mol	5.8 kcal/mol	0.498 ± 0.006	0.8	–
Cc1ncsc1-c1ccc(CNC(=O)[C@@H]2C[C@@H](O)CN2C(=O)[C@@H](NC(=O)COCCOCCOCCOCCOCCOc2cc(-c3scnc3C)ccc2CNC(=O)[C@@H]2C[C@@H](O)CN2C(=O)[C@@H](NC(=O)C2(C#N)CC2)C(C)(C)C)C(C)(C)C)cc1 [CMP113, (2S,4R)-1-((S)-2-(tert-butyl)-20-(2-(((2S,4R)-1-((S)-2-(1-cyanocyclopropane-1-carboxamido)-3,3-dimethylbutanoyl)-4-hydroxypyrrolidine-2-carboxamido)methyl)-5-(4-methylthiazol-5-yl)phenoxy)-4-oxo-6,9,12,15,18-pentaoxa-3-azaicosanoyl)-4-hydroxy-N-(4-(4-methylthiazol-5-yl)benzyl)pyrrolidine-2-carboxamide]	117 ± 25 nM	-9.5 kcal/mol	-6.4 ± 0.2 kcal/mol	-3.1 kcal/mol	0.934 ± 0.005	1.7	–
CC(=O)N[C@H](C(=O)N1C[C@H](O)C[C@H]1C(=O)NCc1ccc(-c2scnc2C)cc1)C(C)(C)C [VH032, reference compound]	–	–	–	–	–	–	protein levels of Hdy-HIF-1α ([3]; HeLa, 1 μM, 10 h): completely ineffective; concentration at which active in cells ([3]; cells): ~100 µM
